Tests used:
[1] = topically-administered without dermal-penetrants; cited from earlier work
Trichophyton species = test: In vitro inhibition assay on potato-dextrose plates, fungal pathogens; assay type: cell-based; settings: positive control, 18 hr at 30° C.
Description: In the assay, potato-dextrose plates (DIFCO®, Detroit, Mich.) were prepared using standard procedures and were inoculated individually with a confluent bed (about 1.7×10^6) of various species of the fungus Trichophyton. The tested fungal strains of Trichophyton species (available from the American Type Culture Collection (ATCC; Rockville, Md.)) and their ATCC accession numbers, as well as the results of in vitro inhibition by Bacillus coagulans are illustrated in FIG. 4.
Inhibition by Bacillus coagulans was ascertained by placing on the plate approximately 1.5×10^6 colony forming units (CFU) in 10 μl of broth or buffer, plated directly in the center of the potato-dextrose plate, with one test locus per plate. The size of each test locus was approximately 8 mm in diameter and a minimum of three tests were performed for each inhibition assay. The negative control consisted of a […] of sterile saline solution, whereas the positive control consisted of a […] 2% Miconazole (1-[2-(2,4-dichlorophenyl)-2-[(2,4-dichlorophenyl)methoxylmethyl-1,11-imidazole within an inert cream.
The plates were then incubated for approximately 18 hr at 30° C., at which time the zones of inhibition were measured. […]

four species of Candida = test: In vitro inhibition assay on potato-dextrose plates, yeast pathogens; assay type: cell-based; settings: positive control, 18 hr at 30° C.
Description: Each of the yeast pathogens and their ATCC accession numbers are illustrated in FIG. 5.
In the in vitro inhibition assay, potato-dextrose plates (DIFCO®, Detroit, Mich.) were prepared using standard procedures and were inoculated individually with a confluent bed about 1.7×10^6 of the four species of Candida. Inhibition by Bacillus coagulans was tested by placing on the plate about 1.5×10^6 colony forming units (CFU) in 10 μl of broth or buffer, plated directly in the center of the potato-dextrose plate with one test locus of about 8 mm in diameter per plate. A minimum of three tests were performed for each inhibition assay. The negative control consisted of a 10 μl volume of a sterile saline solution, whereas the positive control consisted of a 1 μl volume of Miconazole cream.
The plates were then incubated for approximately 18 hr at 30° C., at which time the zones of inhibition were measured. As designated herein, “excellent inhibition” means the zone was 10 mm or greater in diameter; and “good inhibition” means the zone was greater than 2 mm in diameter, but less than 10 mm in diameter.

[2] = system: opportunistic bacterial pathogens; test: In vitro bacterial pathogen screen (DIFCO BACTROL Disk Set) on potato-dextrose plates; assay type: cell-based; settings: positive control, 18 hr at 30° C.
Source text: The ability of Bacillus coagulans to inhibit various opportunistic bacterial pathogens was quantitatively ascertained by use of an in vitro assay. This assay is part of a standardized bacterial pathogen screen (developed by the U.S. Food and Drug Administration(FDA)) and is commercially available on solid support disks (DIFCO® BACTROL® Disk Set). To perform the assay, potato-dextrose plates (DIFCO®) were initially prepared using standard procedures. The plates were then individually inoculated with each of the bacteria (approximately 1.5×10^6 CFU) to be tested, so as to form a confluent bacterial bed.
Inhibition by Bacillus coagulans was subsequently ascertained by placing approximately 1.5×10^6 CFU of Bacillus coagulans in 10 μl of broth or buffer, directly in the center of the potato-dextrose plate, with one test locus being approximately 8 mm in diameter per plate. A minimum of three test loci were used for each assay. The negative control consisted of a 10 μl volume of a sterile saline solution, whereas the positive control consisted of a 10 μl volume of glutaraldehyde. The plates were then incubated for approximately about 18 hr at 30° C., at which time the zones of inhibition were measured. […]

In the case of `CC(C(=O)O)c1cccc(C(=O)c2ccccc2)c1` (stereo not shown) [Ketoprofen], the “adsorption through viable, keritinized dermal tissue” value [1] is given as “very limited concentration, if at all”.
For `Clc1ccc(COC(Cn2ccnc2)c2ccc(Cl)cc2Cl)c(Cl)c1` (stereo not shown) [Miconazole], the “zone of inhibition, diameter” value (Trichophyton species; 2% in inert cream, mean average of three tests) was “approximately 8.5 mm”, the inhibition class (Trichophyton species) was “good (“good inhibition” means the zone was greater than 2 mm in diameter, but less than 10 mm in diameter)” and the “zone of inhibition, diameter” value (four species of Candida; cream, average of three tests) was “approximately 8.7 mm”. The inhibition class (four species of Candida) was “good (“good inhibition” means the zone was greater than 2 mm in diameter, but less than 10 mm in diameter)”.
With `O=CCCCC=O` [glutaraldehyde] the “zone of inhibition, diameter” value ([2]; 10 μl, average of three tests) was “approximately 16.2 mm” and the inhibition class [2] was “excellent (“excellent inhibition” means the zone was 10 mm or greater in diameter)”.
